From PubChem BioAssay AID588659 (The Scripps Research Institute Molecular Screening Center, 2011)
Activity calls are given as the source filed them.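 How the source made its calls: active means change in p38 protein level versus solvent-only treated cells of at least 30%, down or up; inactive means change under 30% either way.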

Assays:
[1] = biological target: Mitogen-activated protein kinase 14 (Homo sapiens) (UniProt Q16539); assay: altered p38 MAPK protein abundance – HT29 cells, chemiluminescent western blot, powder samples, counter-screen for KLF5 inhibitor project, late-stage follow-up (AID 588659); settings: HT29 cells, p38 western blot, 24 h; at 10 µM; stronger effect = higher value
Sequence of Mitogen-activated protein kinase 14 (Homo sapiens) (Q16539 whole entry, looked up): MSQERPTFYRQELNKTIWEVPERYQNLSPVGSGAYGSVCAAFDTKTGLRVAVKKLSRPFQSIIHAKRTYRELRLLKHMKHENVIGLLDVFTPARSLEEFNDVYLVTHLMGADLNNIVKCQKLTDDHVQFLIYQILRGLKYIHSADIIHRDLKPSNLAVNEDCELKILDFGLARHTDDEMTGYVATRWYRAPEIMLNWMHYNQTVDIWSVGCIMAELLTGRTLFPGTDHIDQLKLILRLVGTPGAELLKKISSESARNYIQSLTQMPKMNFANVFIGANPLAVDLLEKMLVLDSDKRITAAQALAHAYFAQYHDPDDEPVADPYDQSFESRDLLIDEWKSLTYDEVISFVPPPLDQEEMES

[2] = tested on: HT29 cells, p38 western blot, 24 h; assay: as above; settings: measured here: p38 band fold change vs DMSO; at 10 µM

inhibition [1]	Compound	fold change [2]
10.2% (inactive)	CN(C(=O)CNC(=O)/C=C/c1cccc(Cl)c1)C1CCS(=O)(=O)CC1	–
-2.37% (inactive)	CN(C(=O)CNC(=O)/C=C/c1cccc(Cl)c1)C1CCS(=O)(=O)C1 (centres undefined)	1.02
14.3% (inactive)	CN(C(=O)COC(=O)/C=C/c1cccc([N+](=O)[O-])c1)C1CCS(=O)(=O)C1 (centres undefined)	–
